The text below walks through data of article PMC7370187, “Screening of an Epigenetic Drug Library Identifies 4-((hydroxyamino)carbonyl)-N-(2-hydroxyethyl)-N-Phenyl-Benzeneacetamide that Reduces Melanin Synthesis by Inhibiting Tyrosinase Activity Independently of Epigenetic Mechanisms” (International Journal of Molecular Sciences, 2020).

Each structure is given as a SMILES string. pIC50: −log10 of the molar value. “Also recorded” adds a separate entry of the source.

Series [1] deals with mushroom TYR. Also on record: method as in earlier work. The note with it: ref [55] Baek et al.; read-out: IC50, catalytic activity of mushroom TYR in vitro; cited from earlier work.
The test system of series [2] is cellular melanin production. Also on record: method as in earlier work. The note with it: ref [55] Baek et al.; cited from earlier work.
For series [3], the target named is T1, human TYR (Homo sapiens, UniProt P14679).
T1 construct: expressed in transfected cells; Triton X-100 lysate supernatant
T1 sequence (P14679 19-529): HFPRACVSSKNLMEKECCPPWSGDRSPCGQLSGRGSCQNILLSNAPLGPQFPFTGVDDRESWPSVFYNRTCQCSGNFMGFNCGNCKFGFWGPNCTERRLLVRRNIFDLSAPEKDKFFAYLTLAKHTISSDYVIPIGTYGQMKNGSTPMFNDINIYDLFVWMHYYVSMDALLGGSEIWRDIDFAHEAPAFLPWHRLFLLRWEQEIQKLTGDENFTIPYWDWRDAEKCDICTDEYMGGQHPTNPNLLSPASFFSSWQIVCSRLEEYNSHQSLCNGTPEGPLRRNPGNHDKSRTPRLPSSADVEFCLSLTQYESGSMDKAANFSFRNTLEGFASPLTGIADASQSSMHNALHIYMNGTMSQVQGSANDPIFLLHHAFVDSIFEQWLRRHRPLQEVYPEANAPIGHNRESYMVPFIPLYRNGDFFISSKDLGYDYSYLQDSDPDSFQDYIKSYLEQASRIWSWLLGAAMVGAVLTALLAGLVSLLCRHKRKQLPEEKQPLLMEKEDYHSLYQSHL
Kind of series: In vitro TYR catalytic activity assay, lysate of HEK293-TYR cells. The series is classed as biochemical. The following applies: each drug at 1.0 μM, library screening. As for the experimental part:
(§1) To examine the direct effect of a drug on the catalytic activity of TYR, in vitro experiments were undertaken. Lysate of B16F10 cells stimulated with α-MSH for 24 h was used as a murine TYR preparation. Human TYR preparation was the lysate of human embryonic kidney 293 cells constitutively expressing human TYR (HEK293-TYR). […] The TYR activity assay mixture (200 μL) consisted of 100 mM sodium phosphate buffer (pH 6.8), TYR preparation (40 μg protein), a drug at various concentrations, 1.0 mM L-tyrosine, and 42 μΜ L-DOPA. For enzyme kinetic study, the concentrations of L-tyrosine plus L-DOPA were varied while their relative ratio was kept the same as the standard assay condition. […] The reactions were also performed in the absence of a TYR preparation to correct for the effects of non-enzymatic reactions. Enzyme activity was calculated as follows: activity (% control) = (C−D)/(A−B) × 100, where A and B are the absorbance changes of the control group with and without enzyme, respectively, while C and D are the absorbance changes of the test group with and without enzyme, respectively.

In series [4] the test system is B16-F10 murine melanoma cells. Kind of series: Screening assay for overall melanin synthesis (OD 400 nm) in α-MSH-stimulated cells. Type of series: cell-based. The following applies: 100 nM α-MSH, 72 h; for relative melanin synthesis (OD 400 nm): drug 1.0 μM. Here is the method:
For the screening assay, B16-F10 cells were plated in 96-well plates (3 × 10^3 cells per well) and cultured for 24 h. The cells were then treated with a test drug at 1.0 μM for 60 min, and subsequently stimulated with 0.1 μM α-MSH for 72 h. Overall melanin synthesis was estimated by measuring the absorbance of each well (cells plus medium, without cell lysis) at 400 nm using a Spectrostar Nano microplate reader (BMG LABTECH GmbH, Ortenberg, Germany).

The test system of series [5] is B16-F10 cells. Description: Cell viability assay (MTT). The note with it: 48 h; for relative viability: drug 1.0 μM. The series is classed as cell-based, murine. Here is the method:
Cell viability was evaluated using 3-(4,5-dimethylthiazol-2-yl)-2,5-diphenyltetrazolium bromide (MTT). After treatment of B16-F10 cells with each drug for 48 h, cells were washed with phosphate-buffered saline (PBS) and incubated for 2 h in the culture medium containing 1 mg∙mL^−1 MTT (Amresco, Solon, OH, USA). The medium was discarded by aspiration, the formazan dye deposited inside the cells was extracted with isopropanol, and absorbance was measured at 595 nm using a Spectrostar Nano microplate reader.

Series [6] is described as follows: Copper chelating activity assay (pyrocatechol violet). The series is classed as physicochemical. The following applies: 200 μM test compound, 200 μM copper ions, 200 μM pyrocatechol violet, absorbance 632 nm. Here is the method:
Copper chelating activity was determined by using pyrocatechol violet (Sigma-Aldrich). […] The reaction mixture containing a potential chelator at varied concentrations, 200 μM CuSO4, and 200 μM pyrocatechol violet was incubated at 25 °C for 20 min, and its absorption spectra were recorded using a Shimadzu UV-1650PC spectrophotometer (Shimadzu Corporation, Kyoto, Japan). Copper chelating activity was evaluated by the change in the absorbance of pyrocatechol violet at 632 nm.

In series [7] the target is T1, human TYR. Also on record: method as in PMID 31382682, PMID 23476698, PMID 26914711. The note with it: HEK293-TYR; ref [43],[45],[47]; cited from earlier work.
Series [8] addresses T2, murine TYR (Mus musculus, UniProt P11344).
T2 construct: One is the protein extract of B16F10 cells stimulated by α-MSH and thus expresses a high amount of TYR; endogenous in cells; host or cells: B16F10 murine melanoma cells stimulated with α-MSH for 24 h; Triton X-100 lysate supernatant
T2 sequence (P11344 19-533): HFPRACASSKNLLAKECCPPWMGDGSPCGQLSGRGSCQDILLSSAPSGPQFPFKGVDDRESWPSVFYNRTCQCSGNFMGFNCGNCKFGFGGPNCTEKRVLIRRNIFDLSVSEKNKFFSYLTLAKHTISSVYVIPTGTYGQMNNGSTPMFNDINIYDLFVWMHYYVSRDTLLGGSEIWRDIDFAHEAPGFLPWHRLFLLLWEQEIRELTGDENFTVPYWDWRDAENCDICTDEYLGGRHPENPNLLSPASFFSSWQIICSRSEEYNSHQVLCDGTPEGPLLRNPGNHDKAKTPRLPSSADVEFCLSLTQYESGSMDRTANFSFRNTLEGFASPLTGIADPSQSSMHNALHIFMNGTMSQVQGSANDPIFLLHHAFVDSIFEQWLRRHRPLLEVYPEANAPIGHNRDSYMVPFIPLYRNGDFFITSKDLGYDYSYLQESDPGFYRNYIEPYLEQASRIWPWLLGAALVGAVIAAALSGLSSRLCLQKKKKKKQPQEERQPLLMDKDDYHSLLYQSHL
Kind of series: In vitro TYR catalytic activity assay, lysate of α-MSH-stimulated B16F10 cells. The following applies: murine TYR, varying substrate concentrations. The series is classed as biochemical. Here is the method: as §1

Series [9] relates to TYR. Kind of series: In vitro TYR catalytic activity, murine and human TYR given together (abstract). Type of series: biochemical. The note with it: range over human and murine TYR preparations. As for the experimental part:
as §1

With `O=C(NO)c1ccc(NC(=O)C23CC4CC(CC(C4)C2)C3)cc1` [1a, 4-(Adamantanecarboxamido)-N-hydroxybenzamide], the negative logarithm of the IC50 (pIC50) is 4.92 in series [1] and 5.42 in series [2].
Take `O=C(NO)c1ccc(C(=O)NC23CC4CC(CC(C4)C2)C3)cc1` [1b, N1-Adamantyl-N4-hydroxyterephthal amide]: the negative logarithm of the IC50 (pIC50) in [1] was 5.05; in series [2], 5.13.
`COc1ccc(Cn2ccc3ccc(C(=O)NO)cc32)cc1` [A5, N-Hydroxy-1-((4-methoxyphenyl)methyl)-1H-indole-6-carboxamide]: the “human TYR inhibitory effect” value in [3] is “potent TYR inhibitory effects; also recorded: showed excellent inhibitory action”. In addition, in [4], the “relative melanin synthesis (OD 400 nm)” value was “showed no melanin inhibitory action”.
As to `COc1cc2c(NC3CCN(C(C)C)CC3)nc(C3CCCCC3)nc2cc1OCCCN1CCCC1` [C3, UNC0638], the relative viability entry in [5] is “showed strong cytotoxicity”.
For the compound `CCN(CC)Cc1ccc2cc(COC(=O)Nc3ccc(C(=O)NO)cc3)ccc2c1.Cl.O` [C10, (6-((diethylamino)methyl)naphthalen-2-yl)methyl (4-(hydroxycarbamoyl)phenyl)carbamate hydrochloride hydrate], in [3], the “human TYR inhibitory effect” value is reported as “potent TYR inhibitory effects; also recorded: showed excellent inhibitory action”.
Regarding `O=C(C=Cc1cccc(C(=O)NO)c1)NO` [H4, N-hydroxy-3-(3-(hydroxyamino)-3-oxo-1-propen-1-yl)-benzamide], the “human TYR inhibitory effect” value in series [3] is reported as “potent TYR inhibitory effects”. The “relative melanin synthesis (OD 400 nm)” value in series [4] is “markedly inhibited cellular melanin synthesis”. Also, the “melanin synthesis (OD 400)” value in series [4] (drug at varied concentrations) is given as “attenuated by both drugs in a dose-dependent manner”. Further, the relative viability result in series [5] was “without reducing cell viability”. The “cytotoxicity (relative viability)” value in series [5] (drug at various concentrations) is “showed toxicity at 3 μM and higher concentrations”.
In the case of `Cn1c(C=CC(=O)NO)ccc1C=CC(=O)c1cccc(F)c1` [M3, 3-(5-(3-(3-Fluorophenyl)-3-oxopropen-1-yl)-1-methyl-1H-pyrrol-2-yl)-N-hydroxy-2-propenamide], the “human TYR inhibitory effect” value in [3] is listed as “potent TYR inhibitory effects; also recorded: showed excellent inhibitory action”. In addition, the “relative melanin synthesis (OD 400 nm)” value in series [4] is on record as “showed no melanin inhibitory action”.
The compound `O=c1cc(CO)occ1O` [kojic acid] displayed a copper ions chelated in series [6] of 36%. In addition, in series [2], the pIC50 was 2.70.
With `O=c1cc(-c2ccc(O)c(O)c2)oc2cc(OS(=O)(=O)O)cc(O)c12` [luteolin 7-sulfate], in series [7], the pIC50 is 5.09.
As to `O=C(O)/C=C/c1ccc(O)cc1` [p-coumaric acid], the pIC50 in [7] was 5.40.
Regarding `OC[C@H]1O[C@@H](Oc2ccc(O)cc2)[C@H](O)[C@@H](O)[C@@H]1O` [β-arbutin, 4-hydroxyphenyl-β-D-glucopyranoside], the “inhibition type (Lineweaver–Burk plots)” value in [8] is “competitive inhibition”. Besides, the copper ions chelated result in series [6] is reported as “did not show copper chelating activity”. For the same compound, the pIC50 in [9] was 3.15 to 3.30.

The pIC50 is the IC50 on a negative log10 scale, so that one unit is a factor of ten.
